Data taken from patent US20070088050A1, “Crystals of laquinimod sodium, and process for the manufacture thereof” (priority 2005, published 2007).

What was measured:
[1] = Insoluble matter test: sample mixed in deionized water at ambient temperature; assay type: physicochemical; details: 55 mg sample in 0.5 mL deionized water
Protocol: (§1) The subject invention also provides a process for making a pharmaceutical composition comprising laquinimod sodium comprising: • a) obtaining a batch of laquinimod sodium; • b) determining whether insoluble matter is present in the batch of step a) by mixing a sample from the batch in deionized water at room temperature at a ratio of at least 110 mg of sample to 1.0 ml of water, and inspecting the resulting mixture for the presence of insoluble matter; and • c) mixing the batch of step a) with at least one pharmaceutically acceptable carrier if in step b) insoluble matter is determined to be present below a predetermined amount.
as §1, with “A” for “The subject invention also provides a”, “amount. […]” for “amount.”

[2] = Determination of powder density (bulk density, tapped density); assay type: physicochemical; details: for Powder density, TD (tapped density): 1250 taps; for Powder density, BD (bulk density): loose, uncompacted powder
Protocol: As used herein, “bulk density” or “BD” refers to a density measurement of a loose, uncompacted substance, wherein the volume of the substance includes the air trapped between particles.
As used herein, “tapped density” or “TD” refers to a density measurement of a substance that has been tapped or vibrated, thus minimizing the volume of the substance by eliminating or minimizing the air trapped between particles.
Determination of Powder Density
• 1. Mix powder; • 2. Tare a 50 ml empty cylinder on a 0.01 g sensitivity balance; • 3. Transfer the powder, without compacting, to the cylinder being held at approximately a 45 degree angle to achieve an untapped apparent volume of 40 to 50 ml. • 4. Bring the cylinder containing the sample to a vertical position by a sharp move in order to level the volume for reading. • 5. Read the apparent volume (Va) to the nearest graduated unit; • 6. Weigh the cylinder with sample (the balance gives sample weight M); • 7. Calculate bulk density in g/ml according to the following equation: BD=M/Va; • 8. Perform steps 1-7 again and report the average data of duplicates. Tapped Density • 1. Put the same cylinder used to calculate Bulk Density in a Quantachrome Dual Autotap instrument; • 2. Perform 1250 taps; • 3. Read the tapped volume (Vf) to the nearest graduated unit; • 4. Calculate the tapped density in g/ml according to the following equation: TD=M/Vf; • 5. Perform steps 1-4 again and report the average data of duplicates. Determination of Particle Size

[3] = Particle size distribution by Malvern laser diffraction (Mastersizer S); assay type: physicochemical; details: for Particle size distribution by Malvern, d(0.1): size below which 10% by volume of the population is found; for Particle size distribution by Malvern, d(0.5): size below which 50% by volume of the population is found; for Particle size distribution by Malvern, d(0.9): size below which 90% by volume of the population is found
Protocol: The particle size distributions were measured by Malvern Laser Diffraction, using the Mastersizer S model. Laser diffraction relies on the fact that diffraction angle of light is inversely proportional to particle size. Properties of particles are measured and interpreted as measurements of a sphere (a sphere being the only shape that can be described by one unique number). In addition, laser diffraction calculates a particle size distribution based around volume terms, thus eliminating particle count from the determination of particle size. The Mastersizer S model measures particles using a single technique and a single range setting.
D(0.1) is the particle size, in microns, below which 10% by volume distribution of the population is found. D(0.5) is the particle size, in microns, below which 50% by volume distribution of the population is found. D(0.9) is the particle size, in microns, below which 90% by volume distribution of the population is found.

[4] = tested on: acute experimental autoimmune encephalomyelitis (aEAE) model; details: U.S. Pat. No. 6,077,851; cited from earlier work
[5] = Solubility of laquinimod sodium in anti-solvents at room temperature (USP XXV terms); assay type: physicochemical; details: room temperature (20-25° C.)
Description: The solubility terms are defined below, in accordance with the United States Pharmacopoeia XXV. [table]

[6] = listed as Laguinimod Sodium according to Example 1 (batch B)

Powder density, TD (tapped density) [2]	Powder density, BD (bulk density) [2]	Particle size distribution by Malvern, d(0.1) [3]	Particle size distribution by Malvern, d(0.5) [3]	Particle size distribution by Malvern, d(0.9) [3]	Structure (SMILES)	further results
0.429 g/ml	0.224 g/ml	3.5 micron	15.7 micron	43.2 micron	CCN(C(=O)c1c([O-])c2c(Cl)cccc2n(C)c1=O)c1ccccc1.[Na+] [Recrystallized product (Example 14)]	
0.362 g/ml	0.158 g/ml	1.3 micron	5.9 micron	19.4 micron	CCN(C(=O)c1c([O-])c2c(Cl)cccc2n(C)c1=O)c1ccccc1.[Na+] [Laquinimod Sodium prepared according to Example 1 (batch C)]	
		15.7 micron	65.5 micron	156.4 micron	CCN(C(=O)c1c([O-])c2c(Cl)cccc2n(C)c1=O)c1ccccc1.[Na+] [Recrystallized product (Example 16)]	
0.758 g/ml	0.498 g/ml	13.3 micron	51.1 micron	105.1 micron	CCN(C(=O)c1c([O-])c2c(Cl)cccc2n(C)c1=O)c1ccccc1.[Na+] [Re-acrystallized product]	
		6.1 micron	21.2 micron	51.8 micron	CCN(C(=O)c1c([O-])c2c(Cl)cccc2n(C)c1=O)c1ccccc1.[Na+] [Recrystallized product (Example 15)]	

The next lines start with the molecule.

Structure (SMILES)	Powder density, TD (tapped density) [2]	Powder density, BD (bulk density) [2]	Particle size distribution by Malvern, d(0.1) [3]	Particle size distribution by Malvern, d(0.5) [3]	Particle size distribution by Malvern, d(0.9) [3]	further results
CCN(C(=O)c1c([O-])c2c(Cl)cccc2n(C)c1=O)c1ccccc1.[Na+]						Dissolution in deionized water [1]: did not completely dissolve
CCN(C(=O)c1c([O-])c2c(Cl)cccc2n(C)c1=O)c1ccccc1.[Na+] [Laquinimod Sodium prepared according to Example 1 (batch B)]	0.452 g/ml	0.189 g/ml	2.1 micron	10.8 micron	35.3 micron	Particle size distribution by Malvern, d(0.1) [3, 6]: 2.1 micron; Particle size distribution by Malvern, d(0.5) [3, 6]: 10.8 micron; Particle size distribution by Malvern, d(0.9) [3, 6]: 35.3 micron
CCN(C(=O)c1c(O)c2c(Cl)cccc2n(C)c1=O)c1ccccc1 [Laquinimod, N-ethyl-N-phenyl-1,2,-dihydro-4-hydroxy-5-chloro-1-methyl-2-oxoquinoline-3-carboxamide]						Efficacy in the aEAE model [4]: effective
CCN(C(=O)c1c(O)c2c(Cl)cccc2n(C)c1=O)c1ccccc1 [laquinimod sodium]						Solubility in acetone ([5]; acetone): practically insoluble; Solubility in ethanol ([5]; ethanol): slightly soluble; Solubility in isopropanol ([5]; isopropanol): very slightly soluble
CCN(C(=O)c1c([O-])c2c(Cl)cccc2n(C)c1=O)c1ccccc1.[Na+] [Laquinimod Sodium prepared according to Example 1 (batch A)]	0.347 g/ml	0.166 g/ml	1.5 micron	7.1 micron	23.2 micron	
